From US9382261B2, “Substituted quinazolinones as HCV inhibitors” (Janssen R&D Ireland, priority 2011, dated 2016) come the findings set out here.

A value given as a limit tells only on which side of the number the result lay.

The test system of data set [1] is HCV subgenomic replicon genotype 1b Con1. Put plainly: HCV replicon assay, transient transfection, genotype 1b Con1 (Huh-7 lunet, luciferase readout). The settings on record: Hepatitis C virus, 48 h, Huh-7 lunet transiently transfected, genotype 1b Con1, two days incubation. In kind it is cell-based, HCV genotype 1b Con1. The source says:
(§1) In a transient set-up, a Huh-7 lunet hepatoma cell line was transiently transfected with an autonomously replicating RNA encoding a bi-cistronic expression construct. This construct comprises a firefly luciferase reporter gene preceding the NS3-NS5B subgenomic region of HCV (genotype 1a H77 or 1b Con1). Translation of the HCV subgenomic region is mediated by an internal ribosome entry site of encephalomyocarditis virus. The construct is furthermore flanked by 5′ and 3′ untranslated regions of HCV (genotype 1a H77 or 1b Con1, respectively), which allow for replication of the RNA.
(§2) Cells were plated in 384 well plates in the presence of test and control compounds, which were added in various concentrations. Following an incubation of two days, replication of the HCV subgenomic replicon RNA was measured by assaying luciferase activity (using standard luciferase assay substrates and reagents and a Perkin Elmer ViewLux™ ultraHTS microplate imager). HCV subgenomic replicon containing cells in the control cultures have high luciferase expression in the absence of any inhibitor. The inhibitory activity of the compound was monitored, enabling a dose-response curve for each test compound. EC50 values were then calculated, which represent the amount of compound required to decrease the level of detected luciferase activity by 50%, or more specifically, to reduce the ability of the genetically linked HCV subgenomic RNA to replicate.

Data set [2] deals with HCV subgenomic replicon genotype 1a H77. Put plainly: HCV replicon assay, transient transfection, genotype 1a H77 (Huh-7 lunet, luciferase readout). In kind it is cell-based, HCV genotype 1a H77. As to conditions: Hepatitis C virus, 48 h, Huh-7 lunet transiently transfected, genotype 1a H77, two days incubation.
Text: as §1, §2
(In general: Replicon systems follow genome replication, usually without infectious particles.)

Data set [3] deals with HCV replicon type 1b in Huh-Luc cells. Put plainly: HCV replicon assay, stable transfection (Huh-7 luc/neo, luciferase readout). In kind it is cell-based, HCV type 1b. As to conditions: Hepatitis C virus, Huh-7, 72 h, stably transfected Huh-Luc cells, genotype 1b, three days incubation, average if tested more than once, read-out: HCV-REP-HUH7LUC_EC50. From the text:
The compounds of formula (I) were examined for inhibitory activity in the HCV replicon. This cellular assay is based on a bicistronic expression construct, as described by Lohmann et al. (Science (1999) 285: 110-113; Journal of Virology (2003) 77: 3007-3019) with modifications described by Krieger et al. (Journal of Virology (2001) 75: 4614-4624), and Lohmann et al. (Journal of Virology (2003) 77: 3007-3019) for genotype 1b and by Yi et al. (Journal of Virology (2004) 78: 7904-7915) for genotype 1a, in a multi-target screening strategy.
The method was as follows. The assay utilized the stably transfected cell line Huh-7 luc/neo (hereafter referred to as Huh-Luc). This cell line harbors an RNA encoding a bicistronic expression construct comprising the wild type NS3-NS5B regions of HCV type 1b translated from an Internal Ribosome Entry Site (IRES) from encephalomyocarditis virus (EMCV), preceded by a reporter portion (FfL-luciferase), and a selectable marker portion (neoR, neomycine phosphotransferase). The construct is flanked by 5′ and 3′ NTRs (non-translated regions) from HCV type 1b. Continued culture of the replicon cells in the presence of G418 (neoR) is dependent on the replication of the HCV RNA. The stably transfected replicon cells that replicate HCV RNA autonomously and to high levels, encoding inter alia luciferase, were used for screening the antiviral compounds.
The replicon cells were plated in 384 well plates in the presence of the test and control compounds which were added in various concentrations. Following an incubation of three days, HCV replication was measured by assaying luciferase activity (using standard luciferase assay substrates and reagents and a Perkin Elmer ViewLux™ ultraHTS microplate imager). Replicon cells in the control cultures have high luciferase expression in the absence of any inhibitor. The inhibitory activity of the compound was monitored on the Huh-Luc cells, enabling a dose-response curve for each test compound. EC50 values were then calculated, which represent the amount of compound required to decrease the level of detected luciferase activity by 50%, or more specifically, to reduce the ability of the genetically linked HCV replicon RNA to replicate.
Where a compound of formula (I) was tested more than once in the replicon assay, the average of all test results is given in this Table 1.

Data set [4] in a line: Counterscreen Huh7-CMV-Luc. The settings on record: human; counterscreen cell line Huh7-CMV-Luc. In kind it is cell-based. The source says: (§3) The in vitro antiviral activity against HCV of the compounds of formula I can be tested in a cellular HCV replicon system based on Lohmann et al. (1999) Science 285:110-113, with the further modifications described by Krieger et al. (2001) Journal of Virology 75: 4614-4624 and Lohmann et al. (2003) Journal of Virology 77: 3007-3019 for genotype 1b and by Yi et al. (2004) Journal of Virology 78: 7904-7915 for genotype 1a (incorporated herein by reference), which is further exemplified in the examples section. This model, while not a complete infection model for HCV, is widely accepted as the most robust and efficient model of autonomous HCV RNA replication currently available. It will be appreciated that it is important to distinguish between compounds that specifically interfere with HCV functions from those that exert cytotoxic or cytostatic effects in the HCV replicon model, and as a consequence cause a decrease in HCV RNA or linked reporter enzyme concentration. Assays are known in the field for the evaluation of cellular cytotoxicity based for example on the activity of mitochondrial enzymes using fluorogenic redox dyes such as resazurin. Furthermore, cellular counter screens exist for the evaluation of non-selective inhibition of linked reporter gene activity, such as firefly luciferase. Appropriate cell types can be equipped by stable transfection with a luciferase reporter gene whose expression is dependent on a constitutively active gene promoter, and such cells can be used as a counter-screen to eliminate non-selective inhibitors.
(§4) Counterscreen cell lines included a Huh-7 hepatoma cell line containing a human cytomegalovirus major immediate-early promoter-Luc construct (Huh7-CMV-Luc) and an MT4 T-cell line containing a long terminal repeat-Luc reporter (MT4-LTR-Luc).
A general note: Counterscreens check selectivity or assay interference.

A short description of data set [5]: Counterscreen MT4-LTR-Luc. In kind it is cell-based. As to conditions: human; counterscreen cell line MT4-LTR-Luc.
Text: as §3, §4

The term CC50 denotes the concentration at which the toxic effect on the cells reaches its halfway point. A low value points to harm at low concentration. For the compound `COC(=O)N[C@H](C(=O)N1CC2(C[C@H]1c1nc3cc(-c4ccc5cc(-c6cnc([C@@H]7C[C@H]8C[C@H]8N7C(=O)[C@@H](NC(=O)OC)C(C)C)[nH]6)ccc5c4)ccc3c(=O)[nH]1)OCCCO2)C(C)C` [Compound 1], the EC50 amounted to 29 pM in data set [1], 790 pM in data set [2] and 26 pM in data set [3]. For the same compound, the cytotoxic concentration (CC50) in data set [4] and in data set [5] was over 980000 pM in each case.
On to `COC(=O)N[C@H](C(=O)N1CC2(C[C@H]1c1ncc(-c3ccc4cc(-c5ccc6c(=O)[nH]c([C@@H]7CC8(CN7C(=O)[C@@H](NC(=O)OC)C(C)C)OCCO8)nc6c5)ccc4c3)[nH]1)OCCO2)C(C)C` [Compound 2], for which the EC50 turned out to be 33 pM in data set [1], 1400 pM in data set [2] and 18 pM in data set [3]. Further, the CC50 in data set [4] and in data set [5] was over 980000 pM throughout.
Regarding `COC(=O)N[C@H](C(=O)N1[C@@H]2C[C@@H]2C[C@H]1c1ncc(-c2ccc3cc(-c4ccc5c(=O)[nH]c([C@@H]6C[C@H]7C[C@H]7N6C(=O)[C@@H](NC(=O)OC)C(C)C)nc5c4)ccc3c2)[nH]1)C(C)C` [Compound 3], the EC50 in data set [1] is 12 pM; in data set [2] it was 160 pM; in data set [3], 17 pM. Moreover, the CC50 in data set [4] and in data set [5] was over 980000 pM throughout.
Take `COC(=O)N[C@H](C(=O)N1CC2(C[C@H]1c1ncc(-c3ccc4cc(-c5ccc6c(=O)[nH]c([C@@H]7C[C@H]8C[C@H]8N7C(=O)[C@@H](NC(=O)OC)C(C)C)nc6c5)ccc4c3)[nH]1)OCCO2)C(C)C` [Compound 4]: the EC50 in data set [1] was 13 pM; in data set [2] it was 103 pM; in data set [3], 8 pM. Also, the CC50 in data set [4] and in data set [5] was over 980000 pM in each case.
As for `COC(=O)N[C@H](C(=O)N1CC2(C[C@H]1c1ncc(-c3ccc4cc(-c5ccc6c(=O)[nH]c([C@@H]7CCCN7C(=O)[C@@H](NC(=O)OC)C(C)C)nc6c5)ccc4c3)[nH]1)OCCO2)C(C)C` [Compound 5], the EC50 in data set [1] was found to be 25 pM; in data set [2], 677 pM; in data set [3], 25 pM. Besides, the CC50 in data set [4] and in data set [5] was over 980000 pM in each case.
As to `COC(=O)N[C@H](C(=O)N1[C@@H]2C[C@@H]2C[C@H]1c1ncc(-c2ccc3cc(-c4ccc5c(=O)[nH]c([C@@H]6C[C@@H]7CCCC[C@@H]7N6C(=O)[C@@H](NC(=O)OC)C(C)C)nc5c4)ccc3c2)[nH]1)C(C)C` [Compound 7], the EC50 in data set [1] was determined as 6 pM; in data set [2], 546 pM; in data set [3] it was 8 pM. Also, the CC50 in data set [4] and in data set [5] was over 980000 pM throughout.
Consider `COC(=O)N[C@H](C(=O)N1CC2(C[C@H]1c1ncc(-c3ccc4cc(-c5ccc6c(=O)[nH]c([C@@H]7C[C@@H]8CCCC[C@@H]8N7C(=O)[C@@H](NC(=O)OC)C(C)C)nc6c5)ccc4c3)[nH]1)OCCO2)C(C)C` [Compound 9], for which the EC50 was 6 pM in data set [1], 216 pM in data set [2] and 8 pM in data set [3]. Besides, the CC50 in data set [4] and in data set [5] was over 980000 pM throughout.
On to `COC(=O)N[C@H](C(=O)N1CCC[C@H]1c1nc2cc(-c3ccc4cc(-c5cnc([C@@H]6C[C@H]7C[C@H]7N6C(=O)[C@@H](NC(=O)OC)C(C)C)[nH]5)ccc4c3)ccc2c(=O)[nH]1)C(C)C` [Compound 10], for which the EC50 in data set [1] was 5 pM; in data set [2], 341 pM; in data set [3], 6 pM. In addition, the CC50 in data set [4] and in data set [5] was over 980000 pM in each case.
As to `COC(=O)N[C@H](C(=O)N1[C@@H]2CC[C@@H](C2)[C@H]1c1nc2cc(-c3ccc4cc(-c5cnc([C@@H]6C[C@H]7C[C@H]7N6C(=O)[C@@H](NC(=O)OC)C(C)C)[nH]5)ccc4c3)ccc2c(=O)[nH]1)C(C)C` [Compound 12], the values for the EC50 in data set [1], in data set [2] and in data set [3] were 109 pM, 12500 pM and 270 pM, respectively. The CC50 in data set [4] and in data set [5] was over 980000 pM in each case.
In the case of `COC(=O)N[C@H](C(=O)N1CC2(CC2)C[C@H]1c1ncc(-c2ccc3cc(-c4ccc5c(=O)[nH]c([C@@H]6C[C@@H]7CCCC[C@@H]7N6C(=O)[C@@H](NC(=O)OC)C(C)C)nc5c4)ccc3c2)[nH]1)C(C)C` [Compound 13], the EC50 in data set [1] turned out to be 9 pM; in data set [2], 360 pM; in data set [3], 6 pM. The CC50 in data set [4] and in data set [5] was over 980000 pM throughout.
`COC(=O)N[C@H](C(=O)N1[C@H](c2ncc(-c3ccc4cc(-c5ccc6c(=O)[nH]c([C@@H]7C[C@@H]8CCCC[C@@H]8N7C(=O)[C@@H](NC(=O)OC)C(C)C)nc6c5)ccc4c3)[nH]2)C[C@@H]2CCCC[C@@H]21)C(C)C` [Compound 14]: the EC50 worked out at 21 pM in data set [1], 136 pM in data set [2] and 22 pM in data set [3]. Also, the CC50 in data set [4] and in data set [5] was over 980000 pM throughout.
As for `COC(=O)N[C@H](C(=O)N1CCC[C@H]1c1ncc(-c2ccc3cc(-c4ccc5c(=O)[nH]c([C@@H]6C[C@@H]7CCCC[C@@H]7N6C(=O)[C@@H](NC(=O)OC)C(C)C)nc5c4)ccc3c2)[nH]1)C(C)C` [Compound 15], the EC50 came to 7 pM in data set [1], 496 pM in data set [2] and 6 pM in data set [3]. Moreover, the cytotoxic concentration (CC50) in data set [4] and in data set [5] was over 980000 pM in each case.
